Laboratory results: ChEMBL document CHEMBL5131499, “Design, synthesis and glycosidase inhibition of C-4 branched LAB and DAB derivatives” (Eur J Med Chem, 2022)

Molecular target: T1, Lysosomal alpha-glucosidase (Homo sapiens, UniProt P10253)
Assay: Inhibition of human lysosomal alpha glucosidase assessed as release of p-nitrophenol at 1000 uM using p-nitrophenyl glycoside as substrate by spectrometric assay relative to control

SMILES	inhibition [%]
OC[C@]1(c2ccc(F)cc2)NC[C@H](O)[C@H]1O	8.3

Tested on: Prunus dulcis
Assay: Inhibition of almond beta-glucosidase assessed as release of p-nitrophenol at 1000 uM using p-nitrophenyl glycoside as substrate by spectrometric assay relative to control

SMILES	inhibition [%]
OC[C@@]1(c2ccc(F)cc2)NC[C@@H](O)[C@@H]1O	0.6
OC[C@@]1(c2ccc(O)cc2)NC[C@@H](O)[C@@H]1O	8.7
OC[C@]1(c2ccc(F)cc2)NC[C@H](O)[C@H]1O	4.6

Tested on: Helix pomatia
Assay: Inhibition of snail beta-mannosidase assessed as release of p-nitrophenol at 1000 uM using p-nitrophenyl glycoside as substrate by spectrometric assay relative control

SMILES	inhibition [%]
OC[C@@]1(c2ccc(F)cc2)NC[C@@H](O)[C@@H]1O	0.8
OC[C@@]1(c2ccc(O)cc2)NC[C@@H](O)[C@@H]1O	0
OC[C@]1(c2ccc(F)cc2)NC[C@H](O)[C@H]1O	0

Tested on: Escherichia coli
Assay: Inhibition of Escherichia coli beta-glucuronidase assessed as release of p-nitrophenol at 1000 uM using p-nitrophenyl glycoside as substrate by spectrometric assay relative to control

SMILES	inhibition [%]
OC[C@@]1(c2ccc(F)cc2)NC[C@@H](O)[C@@H]1O	1.5
OC[C@@]1(c2ccc(O)cc2)NC[C@@H](O)[C@@H]1O	0.4
OC[C@]1(c2ccc(F)cc2)NC[C@H](O)[C@H]1O	3

Tested on: Aspergillus niger
Assay: Inhibition of Aspergillus niger amyloglucosidase assessed as release of p-nitrophenol at 1000 uM using p-nitrophenyl glycoside as substrate by spectrometric assay relative to control

SMILES	inhibition [%]
OC[C@@]1(c2ccc(F)cc2)NC[C@@H](O)[C@@H]1O	0
OC[C@@]1(c2ccc(O)cc2)NC[C@@H](O)[C@@H]1O	9.2
OC[C@]1(c2ccc(F)cc2)NC[C@H](O)[C@H]1O	0

Molecular target: Alpha-galactosidase (Coffea arabica) (UniProt Q42656)
Assay: Inhibition of coffee beans alpha-galactosidase assessed as release of p-nitrophenol at 1000 uM using p-nitrophenyl glycoside as substrate by spectrometric assay relative to control

Sequence of Alpha-galactosidase (Coffea arabica) (Q42656 16-378 limits assumed): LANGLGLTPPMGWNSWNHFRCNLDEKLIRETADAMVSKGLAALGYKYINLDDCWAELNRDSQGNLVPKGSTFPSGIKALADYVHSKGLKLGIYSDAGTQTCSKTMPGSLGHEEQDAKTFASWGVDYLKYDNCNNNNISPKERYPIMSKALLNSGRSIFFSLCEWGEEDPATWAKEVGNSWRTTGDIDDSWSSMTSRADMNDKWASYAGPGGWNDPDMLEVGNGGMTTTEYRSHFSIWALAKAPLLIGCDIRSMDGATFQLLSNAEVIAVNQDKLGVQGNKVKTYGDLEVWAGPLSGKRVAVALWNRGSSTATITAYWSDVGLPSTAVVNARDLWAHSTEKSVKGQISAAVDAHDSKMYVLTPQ

SMILES	inhibition [%]
OC[C@@]1(c2ccc(F)cc2)NC[C@@H](O)[C@@H]1O	0
OC[C@@]1(c2ccc(O)cc2)NC[C@@H](O)[C@@H]1O	1.2
OC[C@]1(c2ccc(F)cc2)NC[C@H](O)[C@H]1O	0

Species: Rattus norvegicus
Assay: Inhibition of rat intestinal alpha-trehalase assessed as release of p-nitrophenol at 1000 uM using p-nitrophenyl glycoside as substrate by spectrometric assay relative to control

SMILES	inhibition [%]
OC[C@@]1(c2ccc(F)cc2)NC[C@@H](O)[C@@H]1O	25.8
OC[C@@]1(c2ccc(O)cc2)NC[C@@H](O)[C@@H]1O	0
OC[C@]1(c2ccc(F)cc2)NC[C@H](O)[C@H]1O	27

Molecular target: T1, Lysosomal alpha-glucosidase
Assay: Inhibition of human lysosomal alpha glucosidase assessed as release of p-nitrophenol using p-nitrophenyl glycoside as substrate by spectrometric assay

SMILES	IC50 [µM]
OC[C@@]1(c2ccc(F)cc2)NC[C@@H](O)[C@@H]1O	714
OC[C@@]1(c2ccc(O)cc2)NC[C@@H](O)[C@@H]1O	372

Molecular target: Sucrase-isomaltase, intestinal (Rattus norvegicus, UniProt P23739)
Assay: Inhibition of rat intestinal sucrase assessed as release of p-nitrophenol using p-nitrophenyl glycoside as substrate by spectrometric assay

Sequence of Sucrase-isomaltase, intestinal (P23739 1-1013 limits assumed): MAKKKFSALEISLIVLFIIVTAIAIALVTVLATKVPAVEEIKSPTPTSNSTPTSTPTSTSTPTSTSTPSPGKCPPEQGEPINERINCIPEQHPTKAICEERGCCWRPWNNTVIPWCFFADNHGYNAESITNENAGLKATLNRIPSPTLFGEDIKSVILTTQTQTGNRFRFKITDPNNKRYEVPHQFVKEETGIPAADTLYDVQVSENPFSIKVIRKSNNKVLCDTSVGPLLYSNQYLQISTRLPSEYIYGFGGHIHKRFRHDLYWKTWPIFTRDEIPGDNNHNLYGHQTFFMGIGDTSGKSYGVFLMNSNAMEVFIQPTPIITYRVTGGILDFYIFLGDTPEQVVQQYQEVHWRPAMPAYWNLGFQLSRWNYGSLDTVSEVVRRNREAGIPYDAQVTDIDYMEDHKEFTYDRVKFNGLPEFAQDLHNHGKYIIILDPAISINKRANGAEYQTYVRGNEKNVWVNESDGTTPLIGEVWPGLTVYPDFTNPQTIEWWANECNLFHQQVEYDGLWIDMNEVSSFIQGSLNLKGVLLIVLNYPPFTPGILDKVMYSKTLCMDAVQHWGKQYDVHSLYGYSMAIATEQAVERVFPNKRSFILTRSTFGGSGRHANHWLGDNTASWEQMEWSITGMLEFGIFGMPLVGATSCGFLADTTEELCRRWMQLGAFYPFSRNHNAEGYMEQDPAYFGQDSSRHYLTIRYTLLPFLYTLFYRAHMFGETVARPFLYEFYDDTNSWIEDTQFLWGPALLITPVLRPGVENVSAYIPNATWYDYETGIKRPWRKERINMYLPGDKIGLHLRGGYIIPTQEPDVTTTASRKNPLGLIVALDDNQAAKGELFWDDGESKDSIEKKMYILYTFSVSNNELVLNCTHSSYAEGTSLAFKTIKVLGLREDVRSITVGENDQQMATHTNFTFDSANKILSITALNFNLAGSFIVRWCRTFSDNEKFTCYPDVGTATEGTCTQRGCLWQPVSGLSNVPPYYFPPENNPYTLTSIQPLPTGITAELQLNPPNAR
Sequence of Sucrase-isomaltase, intestinal (P23739 1014-1841 limits assumed): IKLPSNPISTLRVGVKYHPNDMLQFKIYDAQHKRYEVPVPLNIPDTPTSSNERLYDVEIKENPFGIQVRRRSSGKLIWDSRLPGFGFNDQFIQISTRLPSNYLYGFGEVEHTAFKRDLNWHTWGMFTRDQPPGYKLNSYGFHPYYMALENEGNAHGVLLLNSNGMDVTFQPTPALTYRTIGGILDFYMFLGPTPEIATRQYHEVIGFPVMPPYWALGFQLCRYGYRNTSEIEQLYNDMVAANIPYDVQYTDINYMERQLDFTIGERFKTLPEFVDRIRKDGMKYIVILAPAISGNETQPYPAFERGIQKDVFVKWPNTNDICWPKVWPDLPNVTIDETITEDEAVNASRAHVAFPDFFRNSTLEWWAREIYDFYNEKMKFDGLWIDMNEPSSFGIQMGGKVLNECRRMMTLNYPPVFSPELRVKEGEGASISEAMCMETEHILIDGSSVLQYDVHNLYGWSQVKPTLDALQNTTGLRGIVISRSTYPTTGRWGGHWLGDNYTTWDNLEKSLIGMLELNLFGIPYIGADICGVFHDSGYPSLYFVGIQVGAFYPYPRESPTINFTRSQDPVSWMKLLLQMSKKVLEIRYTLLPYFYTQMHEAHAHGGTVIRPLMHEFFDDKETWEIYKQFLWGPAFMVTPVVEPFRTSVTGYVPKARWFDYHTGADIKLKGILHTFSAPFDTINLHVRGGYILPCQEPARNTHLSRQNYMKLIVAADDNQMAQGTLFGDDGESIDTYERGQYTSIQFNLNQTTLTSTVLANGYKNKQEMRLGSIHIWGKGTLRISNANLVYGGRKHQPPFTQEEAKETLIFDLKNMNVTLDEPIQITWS

SMILES	IC50 [µM]
OC[C@@]1(c2ccc(F)cc2)NC[C@@H](O)[C@@H]1O	0.2
OC[C@@]1(c2ccc(O)cc2)NC[C@@H](O)[C@@H]1O	0.74
OC[C@]1(c2ccc(F)cc2)NC[C@H](O)[C@H]1O	2.8

Molecular target: T2, Alpha-mannosidase (Canavalia ensiformis) (UniProt C0HJB3)
T2 sequence (whole entry): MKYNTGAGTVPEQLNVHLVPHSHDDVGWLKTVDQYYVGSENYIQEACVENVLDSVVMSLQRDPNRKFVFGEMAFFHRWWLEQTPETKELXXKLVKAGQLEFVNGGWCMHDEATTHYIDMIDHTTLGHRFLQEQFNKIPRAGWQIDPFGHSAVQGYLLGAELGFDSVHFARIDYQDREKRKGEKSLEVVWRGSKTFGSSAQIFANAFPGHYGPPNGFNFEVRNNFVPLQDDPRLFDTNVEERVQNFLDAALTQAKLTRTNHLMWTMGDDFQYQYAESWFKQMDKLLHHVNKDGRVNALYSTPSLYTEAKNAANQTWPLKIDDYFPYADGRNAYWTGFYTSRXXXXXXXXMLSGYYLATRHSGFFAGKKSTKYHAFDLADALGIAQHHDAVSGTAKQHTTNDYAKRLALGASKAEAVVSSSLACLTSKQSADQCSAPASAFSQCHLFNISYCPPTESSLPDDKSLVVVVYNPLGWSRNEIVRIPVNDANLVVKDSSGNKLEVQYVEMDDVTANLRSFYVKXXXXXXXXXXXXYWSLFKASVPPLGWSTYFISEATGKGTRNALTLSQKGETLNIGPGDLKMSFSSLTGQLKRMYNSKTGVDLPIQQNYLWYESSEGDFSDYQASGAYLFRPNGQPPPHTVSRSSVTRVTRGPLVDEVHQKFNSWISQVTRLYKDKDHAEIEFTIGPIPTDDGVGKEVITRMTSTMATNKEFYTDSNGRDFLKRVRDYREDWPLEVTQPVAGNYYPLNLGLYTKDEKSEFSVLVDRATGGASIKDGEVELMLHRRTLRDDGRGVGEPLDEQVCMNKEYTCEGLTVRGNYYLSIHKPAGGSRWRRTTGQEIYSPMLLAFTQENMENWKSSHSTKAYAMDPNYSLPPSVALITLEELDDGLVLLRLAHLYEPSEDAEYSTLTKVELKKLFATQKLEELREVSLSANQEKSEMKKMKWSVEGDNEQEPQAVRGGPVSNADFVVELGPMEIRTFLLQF
Assay: Inhibition of jack bean alpha-mannosidase assessed as release of p-nitrophenol at 1000 uM using p-nitrophenyl glycoside as substrate by spectrometric assay relative to control

SMILES	inhibition [%]
OC[C@@]1(c2ccc(F)cc2)NC[C@@H](O)[C@@H]1O	6.6
OC[C@@]1(c2ccc(O)cc2)NC[C@@H](O)[C@@H]1O	2.2
OC[C@]1(c2ccc(F)cc2)NC[C@H](O)[C@H]1O	6.6

Species: Bos taurus
Assay: Inhibition of bovine liver beta-galactosidase assessed as release of p-nitrophenol at 1000 uM using p-nitrophenyl glycoside as substrate by spectrometric assay relative to control

SMILES	inhibition [%]
OC[C@@]1(c2ccc(F)cc2)NC[C@@H](O)[C@@H]1O	8.6
OC[C@@]1(c2ccc(O)cc2)NC[C@@H](O)[C@@H]1O	20.4
OC[C@]1(c2ccc(F)cc2)NC[C@H](O)[C@H]1O	0

Species: Bos taurus
Assay: Inhibition of bovine liver beta-glucronidase assessed as release of p-nitrophenol at 1000 uM using p-nitrophenyl glycoside as substrate by spectrometric assay relative to control

SMILES	inhibition [%]
OC[C@@]1(c2ccc(F)cc2)NC[C@@H](O)[C@@H]1O	16.8
OC[C@@]1(c2ccc(O)cc2)NC[C@@H](O)[C@@H]1O	19.9
OC[C@]1(c2ccc(F)cc2)NC[C@H](O)[C@H]1O	10.9

Molecular target: not listed separately
Assay: Inhibition of rice alpha-glucosidase assessed as release of p-nitrophenol using p-nitrophenyl glycoside as substrate by spectrometric assay
Set-up: species or system Oryza sativa

SMILES	IC50 [µM]
OC[C@@]1(c2ccc(F)cc2)NC[C@@H](O)[C@@H]1O	646
OC[C@@]1(c2ccc(O)cc2)NC[C@@H](O)[C@@H]1O	337

Species: Bos taurus
Assay: Inhibition of bovine liver beta-glucosidase assessed as release of p-nitrophenol at 1000 uM using p-nitrophenyl glycoside as substrate by spectrometric assay relative to control

SMILES	inhibition [%]
OC[C@@]1(c2ccc(F)cc2)NC[C@@H](O)[C@@H]1O	8.4
OC[C@@]1(c2ccc(O)cc2)NC[C@@H](O)[C@@H]1O	10.8
OC[C@]1(c2ccc(F)cc2)NC[C@H](O)[C@H]1O	0.4

Molecular target: not listed separately
Assay: Inhibition of yeast alpha-glucosidase assessed as release of p-nitrophenol using p-nitrophenyl glycoside as substrate by spectrometric assay
Set-up: species or system Saccharomyces cerevisiae

SMILES	IC50 [µM]
OC[C@@]1(c2ccc(F)cc2)NC[C@@H](O)[C@@H]1O	70
OC[C@@]1(c2ccc(O)cc2)NC[C@@H](O)[C@@H]1O	64
OC[C@]1(c2ccc(F)cc2)NC[C@H](O)[C@H]1O	305

Tested on: Oryza sativa
Assay: Inhibition of rice alpha-glucosidase assessed as release of p-nitrophenol at 1000 uM using p-nitrophenyl glycoside as substrate by spectrometric assay relative to control

SMILES	inhibition [%]
OC[C@]1(c2ccc(F)cc2)NC[C@H](O)[C@H]1O	6.4

Molecular target: T3, Tissue alpha-L-fucosidase (Bos taurus) (UniProt Q2KIM0)
T3 sequence (whole entry): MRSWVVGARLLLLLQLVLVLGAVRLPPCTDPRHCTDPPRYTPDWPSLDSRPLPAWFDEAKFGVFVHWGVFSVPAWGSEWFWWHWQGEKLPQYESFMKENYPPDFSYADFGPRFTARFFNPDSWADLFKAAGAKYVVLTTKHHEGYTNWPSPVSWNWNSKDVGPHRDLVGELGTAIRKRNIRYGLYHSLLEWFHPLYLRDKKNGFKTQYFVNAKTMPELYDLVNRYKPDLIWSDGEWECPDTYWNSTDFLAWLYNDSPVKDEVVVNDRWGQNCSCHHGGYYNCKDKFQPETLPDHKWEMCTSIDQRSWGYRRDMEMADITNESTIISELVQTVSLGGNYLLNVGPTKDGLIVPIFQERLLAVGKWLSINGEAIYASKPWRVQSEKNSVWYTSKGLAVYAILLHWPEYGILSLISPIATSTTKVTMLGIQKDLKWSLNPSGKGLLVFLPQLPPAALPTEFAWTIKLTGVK
Assay: Inhibition of bovine kidney alpha-L-fucosidase assessed as release of p-nitrophenol at 1000 uM using p-nitrophenyl glycoside as substrate by spectrometric assay relative to control

SMILES	inhibition [%]
OC[C@@]1(c2ccc(F)cc2)NC[C@@H](O)[C@@H]1O	0
OC[C@@]1(c2ccc(O)cc2)NC[C@@H](O)[C@@H]1O	0
OC[C@]1(c2ccc(F)cc2)NC[C@H](O)[C@H]1O	0

Species: Sus scrofa
Assay: Inhibition of porcine kidney alpha-trehalase assessed as release of p-nitrophenol at 1000 uM using p-nitrophenyl glycoside as substrate by spectrometric assay relative to control

SMILES	inhibition [%]
OC[C@@]1(c2ccc(F)cc2)NC[C@@H](O)[C@@H]1O	4.4
OC[C@@]1(c2ccc(O)cc2)NC[C@@H](O)[C@@H]1O	4.5
OC[C@]1(c2ccc(F)cc2)NC[C@H](O)[C@H]1O	4

Tested on: Penicillium decumbens
Assay: Inhibition of Penicillium decumbens alpha-L-rhamnosidase assessed as release of p-nitrophenol at 1000 uM using p-nitrophenyl glycoside as substrate by spectrometric assay relative to control

SMILES	inhibition [%]
OC[C@@]1(c2ccc(F)cc2)NC[C@@H](O)[C@@H]1O	0
OC[C@@]1(c2ccc(O)cc2)NC[C@@H](O)[C@@H]1O	5.5
OC[C@]1(c2ccc(F)cc2)NC[C@H](O)[C@H]1O	0
